We go through 9 compounds from patent US10351530B2, “Arylcyclohexyl pyrazoles as NRF2 regulators” (GlaxoSmithKline Intellectual Property Development Limited, priority 2015, dated 2019).

Counter-ions that a name gives are not always drawn.

Assay [1] has as its system NQO1 specific enzyme activity in BEAS-2B cells. Kind of assay: BEAS-2B NQO1 MTT Assay. It is filed as cell-based. The following applies: Homo sapiens, BEAS-2B, 48 h, NQO1 specific activity induction. An excerpt: NAD(P)H:quinone oxidoreductase 1 (NQO1), also called DT diaphorase, is a homodimeric FAD-containing enzyme that catalyzes obligatory NAD(P)H-dependent two-electron reductions of quinones and protects cells against the toxic and neoplastic effects of free radicals and reactive oxygen species arising from one-electron reductions. The transcription of NQO1 is finely regulated by NRF2, and thus NQO1 activity is a good marker for NRF2 activation. On day one, frozen BEAS-2B cells (ATCC) are thawed in a water bath, counted, and re-suspended at a concentration of 250,000 cells/mL. Fifty microliters of cells are plated in 384 well black clear-bottomed plates. Plates are incubated at 37° C., 5% CO2 overnight. On day two, plates are centrifuged and 50 nL of compound or controls are added to the cells. Plates are then incubated at 37° C., 5% CO2 for 48 hours. On day four, medium is aspirated from the plate and crude cell lysates are made by adding 13 uL of 1× Cell Signaling Technologies lysis buffer with 1 Complete, Mini, EDTA-free Protease Inhibitor Tablet (Roche) for each 10 mL of lysis buffer. After lysis plates are incubated for 20 minutes at room temperature. Two microliters of lysate are removed for use in Cell Titer Glo assay (Promega) and MTT cocktail is prepared (Prochaska et. al. 1998) for measurement of NQO1 activity. Fifty microliters of MTT cocktail is added to each well, plate is centrifuged, and analyzed on an Envision plate reader (Perkin Elmer) using Absorbance 570 nm label for 30 minutes. Product formation is measured kinetically and the pEC50 of NQO1 specific activity induction is calculated by plotting the change in absorbance (Delta OD/min) versus the log of compound concentration followed by 3-parameter fitting.

In a further assay the target is T1, NRF2/Keap1 (Homo sapiens, UniProt Q14145).
T1 construct: full length NRF2 protein and full length Keap1 protein (Keap1 exists a dimer) are used
Briefly: NRF2-Keap1 TR-FRET Low Protein Assay (full length NRF2 and full length Keap1). It is filed as binding. The following applies: low protein: 1.25 nM Keap1 FlagHis, 2.5 nM biotin-NRF2 added. An excerpt: In the NRF2-Keap1 TR-FRET (time-resolved fluorescence resonance energy transfer) low protein assay, full length NRF2 protein and full length Keap1 protein (Keap1 exists a dimer) are used. The assay detects a compound's ability to displace the binding of Keap1 FlagHis with biotinylated Avi-NRF2 protein. Biotin-NRF2 binds to streptavidin-europium (a component of the detection mix) and Keap1 FlagHis is recognized by anti-Flag APC (allophycocyanin) antibody (also a component of the detection mix). If binding occurs between the two proteins, there will be an energy transfer from the Eu+3 (donor) at 615 nm to the APC (acceptor) at 665 nm. A potential NRF2 inhibitor will cause a reduction in the TR-FRET signal by interfering with the binding of Keap1 to NRF2.
Ten nanoliters of 100× compound dose response curves (serial 3-fold dilutions) in DMSO are stamped using an Echo liquid handling system (Labcyte) into 384-well, low volume, black assay plates (Greiner, #784076), with DMSO in columns 6 and 18. An additional 90 nl DMSO is added to each well, to bring the total volume to 100 nl per well. The top concentration of compound is located in columns 1 and 13, with the serial dilutions going across the row. All reagents are diluted in assay buffer (50 mM Tris, pH 8.0, 5 mM MgCl2, 100 mM NaCl, 0.005% BSA, 1 mM DTT, and 2 mM CHAPS. The BSA, DTT, and CHAPS are added to the assay buffer on the day of assay. Using a Multidrop Combi (Thermo Electron Corporation) equipped with a metal tip dispenser, 5 ul of 1.25 nM Keap1 FlagHis protein is added to all wells of the compound plate, with the exception of the wells in column 18. Wells in column 18 receive 5 ul of assay buffer instead. Plates are centrifuged at 500 rpm for 1 minute, covered with a plate lid, and incubated at 37° C. for 2.25 hours. Plates are then removed from the incubator and allowed to cool to RT for 15 minutes. Five microliters of 2.5 nM biotin-NRF2 protein is then added to all wells of the plates and the plates are spun at 500 rpm for 1 minute, followed by incubating at 4° C. for 1.25 hours. The plates are then allowed to warm to RT for 15 minutes, followed by the addition of 10 ul of detection mix (1 nM Streptavidin Eu+ W1024 and 5 ug/ml mouse anti-DYKDDDDK IgG conjugated to SureLight APC antibody; both from Columbia Biosciences) to all wells. Plates are spun at 500 rpm for 1 minute, incubated for 1 hour at RT, and read on an Envision plate reader using a 320 nm excitation filter and 615 nm and 665 nm emission filters. Compound response (% inhibition) and potency (pIC50) are calculated based on the ratio of the two emissions (665 nm/615 nm) and then the transformed data is normalized against controls in the assay (control 1=1% DMSO in the presence of NRF2 and Keap1 protein and control 2=1% DMSO in the presence of only the NRF2 protein). Data analysis is handled using the software package Abase XE (Surrey, United Kingdom). The % inhibition values are calculated from the ratio (transformed) data by the equation: 100−(100*(compound response-average control 2)/(average control 1−average control 2)). For calculation of pIC50s, Abase XE uses a four parameter equation.

Another assay addresses T2, Keap1/NRF2 (Homo sapiens, UniProt Q14145).
T2 construct: Keap1 (321-609) is diluted to 40 nM (2×) in 1× assay buffer
Kind of assay: NRF2-Keap1 FP Assay (Kelch domain (321-609) of Keap1, TAMRA-labeled NRF2 ETGE peptide). It is filed as binding. The following applies: Keap1 (321-609) 20 nM, Tamra labeled peptide 8 nM. The text has this:
One model for the NRF2-Keap1 interaction is through two binding sites in the Neh2 domain on NRF2. The two sites are referred to as the DLG binding motif (latch domain, uM affinity) and the ETGE binding motif (hinge domain, nM affinity). The Keap1 protein consists of an N-terminal region (NTR), a broad complex, tramtrack, and brick a′ brac domain (BTB), an intervening region (IVR), a double glycine repeat domain (DGR or Kelch), and a C-terminal region. The DLG and ETGE motifs of NRF2's Neh2 domain bind to the Kelch domain of Keap1 at different affinities. In the Keap1 Kelch fluorescence polarization (FP) assay, a TAMRA-labeled 16 mer peptide (AFFAQLQLDEETGEFL) containing the ETGE motif of NRF2 and the Kelch domain (321-609) of Keap1 is used. The assay determines if a compound interferes with the binding between Keap1 […] and the TAMRA-labeled peptide. Binding of TAMRA-labeled NRF2 peptide to Keap1 (321-609) results in a high FP signal. If a compound interferes with the binding between the peptide and the protein, it will cause the assay signal to decrease. Thus, assay signal is inversely proportional to binding inhibition.
100 nl of 100× compound dose response curves (serial 3-fold dilutions) in DMSO are stamped using an Echo liquid handling system (Labcyte) into 384-well low volume black assay plates (Greiner, #784076), with DMSO in columns 6 and 18. The top concentration of compound is located in columns 1 and 13. Keap1 (321-609) is diluted to 40 nM (2×) in 1× assay buffer (50 mM Tris, pH 8.0, 100 mM NaCl, 5 mM MgCl2, 1 mM DTT, 2 mM CHAPS, and 0.005% BSA) and 5 ul is added using a Multidrop Combi (Thermo Electron Corporation) equipped with a metal tip dispenser to all wells of the compound plate, except column 18. Column 18 receives only 5 ul of assay buffer. Immediately, 5 uL of 16 nM (2×) of Tamra labeled peptide (AFFAQLQLDEETGEFL, 21st Century Biochemicals) is added to all wells of the plate. The plates are spun at 500 rpm for 1 min, incubated for 1 hr at room temperature, and read on an Analyst GT (Molecular Devices) equipped with excitation (530/25 nm) and emission (580/10 nm) filters designed for Tamra probes. A 561 nm dichroic mirror is also used in the Analyst. The final assay concentrations of Keap1 (321-609) and Tamra labeled peptide are 20 nM and 8 nM, respectively. Fluorescence measurements, represented as mP, are used in the transformation of the data. Compound activity is calculated based on percent inhibition, normalized against controls in the assay (Control 1 contains the Tamra peptide and Keap1 (321-609) together (0% response) and control 2 contains the Tamra peptide alone (100% response)). Data analysis is handled using the software package Abase XE (Surrey, United Kingdom. The % inhibition values are calculated by the equation: 100−(100*((compound response-average control 2)/(average control 1−average control 2))). For calculation of pIC50s, Abase XE uses a four parameter equation.

T2 sequence (Q14145 321-609): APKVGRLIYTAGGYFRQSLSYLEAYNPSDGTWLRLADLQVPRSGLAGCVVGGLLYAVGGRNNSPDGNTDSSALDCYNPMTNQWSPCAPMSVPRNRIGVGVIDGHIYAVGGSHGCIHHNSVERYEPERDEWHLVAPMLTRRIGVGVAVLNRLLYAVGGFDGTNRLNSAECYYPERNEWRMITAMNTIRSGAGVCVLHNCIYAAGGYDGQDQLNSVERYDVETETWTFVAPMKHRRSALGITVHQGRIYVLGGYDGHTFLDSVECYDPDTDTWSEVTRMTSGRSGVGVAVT
T1 sequence (Q14145 whole entry): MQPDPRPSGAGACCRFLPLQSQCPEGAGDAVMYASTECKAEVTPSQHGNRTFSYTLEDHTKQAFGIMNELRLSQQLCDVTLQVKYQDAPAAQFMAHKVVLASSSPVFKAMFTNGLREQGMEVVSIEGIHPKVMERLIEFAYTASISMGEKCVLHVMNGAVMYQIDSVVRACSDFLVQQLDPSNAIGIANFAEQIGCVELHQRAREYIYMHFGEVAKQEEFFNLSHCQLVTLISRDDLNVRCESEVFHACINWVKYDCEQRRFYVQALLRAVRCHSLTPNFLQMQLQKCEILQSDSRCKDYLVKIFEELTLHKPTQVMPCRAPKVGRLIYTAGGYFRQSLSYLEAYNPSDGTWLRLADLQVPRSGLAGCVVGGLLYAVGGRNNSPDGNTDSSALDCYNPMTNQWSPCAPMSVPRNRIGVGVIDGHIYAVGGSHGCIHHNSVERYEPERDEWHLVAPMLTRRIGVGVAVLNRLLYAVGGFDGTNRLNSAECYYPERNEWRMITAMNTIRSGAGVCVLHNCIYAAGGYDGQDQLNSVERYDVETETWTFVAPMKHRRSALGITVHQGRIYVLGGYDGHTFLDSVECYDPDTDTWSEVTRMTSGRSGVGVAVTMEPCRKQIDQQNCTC

By EC50 is commonly meant the concentration needed to bring the measured effect to its halfway point. Higher therefore signals a less potent agent. The IC50 is the concentration that gives 50% inhibition. Low values mean greater potency, high ones weaker potency. As for `Cn1cc([C@@H]2C[C@H]2c2c(C(=O)O)cnn2-c2cccc(C3CCCN(C(=O)OC(C)(C)C)C3)c2)nn1` (stereo partly drawn) [Example 26, 1-(3-(1-(tert-butoxycarbonyl)piperidin-3-yl)phenyl)-5-((1R,2R)-2-(1-methyl-1H-1,2,3-triazol-4-yl)cyclopropyl)-1H-pyrazole-4-carboxylic Acid], the EC50 in assay [1] lay within 1000 to 10000 nM. Moreover, the 50% inhibitory concentration (IC50) against NRF2/Keap1 and on Keap1/NRF2 was 10 to 100 nM in each case.
For `CC(C)(C)OC(=O)N1CCCC(c2cccc(-n3ncc(C(=O)O)c3C3CC3)c2)C1` (stereo not drawn) [Example 27, 1-(3-(1-(tert-Butoxycarbonyl)piperidin-3-yl)phenyl)-5-cyclopropyl-1H-pyrazole-4-carboxylic Acid], the EC50 in assay [1] is 1000 to 10000 nM. The IC50 against NRF2/Keap1 was 1000 to 10000 nM; at Keap1/NRF2, over 10000 nM.
In the case of `O=C(O)c1cnn(-c2cccc(C3CCCN(CC4CCCCC4)C3)c2)c1C1CC1` (stereo not drawn) [Example 28, 1-(3-(1-(cyclohexylmethyl)piperidin-3-yl)phenyl)-5-cyclopropyl-1H-pyrazole-4-carboxylic Acid, Hydrochloride], the EC50 in assay [1] fell in the range of 1000 to 10000 nM. For the same compound, the IC50 against NRF2/Keap1 was 1000 to 10000 nM; at Keap1/NRF2 it was over 10000 nM.
In turn, `Cn1cc([C@@H]2C[C@H]2c2c(C(=O)O)cnn2-c2cccc(C3CCCN(CCc4ccccc4)C3)c2)nn1` (stereo partly drawn) [Example 29, 5-((1R,2R)-2-(1-Methyl-1H-1,2,3-triazol-4-yl)cyclopropyl)-1-(3-(1-phenethylpiperidin-3-yl)phenyl)-1H-pyrazole-4-carboxylic Acid, Hydrochloride] registered an EC50 in assay [1] of 1000 to 10000 nM. The results for the IC50 on NRF2/Keap1 and at Keap1/NRF2 were 10 to 100 nM and 100 to 1000 nM, respectively.
For `Cn1cc([C@@H]2C[C@H]2c2c(C(=O)O)cnn2-c2cccc(C3CCCN(S(=O)(=O)c4ccccc4)C3)c2)nn1` (stereo partly drawn) [Example 30, 5-((1R,2R)-2-(1-methyl-1H-1,2,3-triazol-4-yl)cyclopropyl)-1-(3-(1-(phenylsulfonyl)piperidin-3-yl)phenyl)-1H-pyrazole-4-carboxylic Acid], in that order: 1000 to 10000 nM, under 10 nM and 10 to 100 nM.
For the compound `Cn1cc([C@@H]2C[C@H]2c2c(C(=O)O)cnn2-c2cccc(C3CCCN(C(=O)CC4CCCCC4)C3)c2)nn1` (stereo partly drawn) [Example 31, 1-(3-(1-(2-cyclohexylacetyl)piperidin-3-yl)phenyl)-5-((1R,2R)-2-(1-methyl-1H-1,2,3-triazol-4-yl)cyclopropyl)-1H-pyrazole-4-carboxylic Acid], the 50% effective concentration (EC50) in assay [1] lay in the range of 100 to 1000 nM. For the same compound, the IC50 was 10 to 100 nM against NRF2/Keap1 and 100 to 1000 nM on Keap1/NRF2.
`Cn1cc([C@@H]2C[C@H]2c2c(C(=O)O)cnn2-c2cccc(C3CCCN(C(=O)C(C)(C)C)C3)c2)nn1` (stereo partly drawn) [Example 32, 5-((1R,2R)-2-(1-methyl-1H-1,2,3-triazol-4-yl)cyclopropyl)-1-(3-(1-pivaloylpiperidin-3-yl)phenyl)-1H-pyrazole-4-carboxylic Acid] gave an EC50 in assay [1] of 100 to 1000 nM. The IC50 at NRF2/Keap1 and at Keap1/NRF2 was 10 to 100 nM each time.
For `Cn1cc([C@@H]2C[C@H]2c2c(C(=O)O)cnn2-c2cccc(C3CCCN(C(=O)c4ccccc4)C3)c2)nn1` (stereo partly drawn) [Example 33, 1-(3-(1-benzoylpiperidin-3-yl)phenyl)-5-((1R,2R)-2-(1-methyl-1H-1,2,3-triazol-4-yl)cyclopropyl)-1H-pyrazole-4-carboxylic Acid], in assay [1], the EC50 was in the range of 1000 to 10000 nM. Further, the figures for the IC50 on NRF2/Keap1 and on Keap1/NRF2 were 10 to 100 nM and 100 to 1000 nM, respectively.
For `CCC[C@@H]1CCCCN1C(=O)N1CCCC(c2cccc(-n3ncc(C(=O)O)c3[C@@H]3C[C@H]3c3cn(C)nn3)c2)C1` (stereo partly drawn) [Example 34, 5-((1R,2R)-2-(1-Methyl-1H-1,2,3-triazol-4-yl)cyclopropyl)-1-(3-(1-((R)-2-propylpiperidine-1-carbonyl)piperidin-3-yl)phenyl)-1H-pyrazole-4-carboxylic Acid], in that order: 1000 to 10000 nM, 10 to 100 nM and 100 to 1000 nM.
